The target in test [1] is T1, WT STING (Homo sapiens, UniProt Q86WV6, H232R). Nature of the test: Differential Scanning Fluorimetry with WT STING. The test is classed as binding. Set-up: 8xHis (N, cleaved yes); SUMO (N, cleaved yes); made in house; host or cells: E. coli Rosetta-gami B (DE3). The following applies: thermal shift vs apoprotein, 150 µM CDN, truncated human WT STING 0.1 mg/ml. An excerpt: (§1) Purified PCR products were cleaved with restriction enzymes BamHI (cat. # R0136S, NEB, Ipswich, USA) and NotI (cat. # R0189S, NEB, Ipswich, USA) and cloned into the pSUMO vector linearized with the identical enzymes.
(§2) Bacterial pellets were re-suspended in ice-cold lysis buffer containing 50 mmol.1^-1 TrisCl (cat. # T1503, Sigma Aldrich, Czech Republic) pH 8.0, 300 mmol.1^-1 NaCl, 3 mmol.1^-1 β-mercaptoethanol (cat. # M6250, Sigma Aldrich, Czech Republic), 10% glycerol (cat. # G5516, Sigma Aldrich, Czech Republic) and 20 mmol.1^-1 imidazole (cat. # I5513, Sigma Aldrich, Czech Republic) using Dounce homogenizer. DNase I (cat. # D5025, Sigma Aldrich, Czech Republic) and RNase A (cat. # R6513, Sigma Aldrich, Czech Republic) were added (final concentration 50 µg/ml) together with MgCl2 (final concentration 5 mmol.l^-1) to the homogenate and bacteria were lysed using French Press G-M™ High-Pressure Cell Press Homogenizer (1500 psi, 3 cycles). […] The resin was poured into a chromatography column, washed with 50 ml buffer A (50 mmol.1^-1 TrisCl (pH 8.0), 800 mmol.1^-1 NaCl, 3 mmol.1^-1 β-mercaptol; 10% glycerol; 20 mmol.1^-1 imidazole) and 8-His-SUMO tagged STING proteins were eluted with 15 ml buffer A containing 300 mmol.1^-1 imidazole. […] Proteins were concentrated with Amicon® Ultra-15 10 K device (cat. # UFC901008, Merck Millipore, Billerica, USA) and flash frozen in liquid N2.
(§3) 20 µL solutions of the reaction mixtures were pipetted in triplicates into 96 well optical reaction plates and thermal denaturation of samples were performed on real time PCR cycler (LightCycler® 480 Instrument II - Roche, Basel, Switzerland). The first derivative of the thermal denaturation curves was performed to calculate denaturing temperatures of STING - CDN complexes and STING apoproteins. The thermal shift for each CDN was calculated by subtracting the average denaturing temperature of STING apoprotein from the average denaturing temperature of STING CDN complex.
Target sequence in this assay (Q86WV6 140-343 H232R): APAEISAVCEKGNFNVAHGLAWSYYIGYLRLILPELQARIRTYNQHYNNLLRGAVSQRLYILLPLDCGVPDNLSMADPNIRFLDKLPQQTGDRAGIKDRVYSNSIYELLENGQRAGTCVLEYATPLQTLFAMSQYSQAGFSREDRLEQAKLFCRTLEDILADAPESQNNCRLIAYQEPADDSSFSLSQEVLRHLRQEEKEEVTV
For orientation: In DSF a fluorescence change marks the thermal transition of the protein.

A further test deals with T2, AQ STING (G230A-R293Q) (Homo sapiens, UniProt Q86WV6, G230A/H232R/R293Q).
T2 construct: 8xHis (N, cleaved yes); SUMO (N, cleaved yes); made in house; host or cells: E. coli Rosetta-gami B (DE3)
T2 sequence (Q86WV6 140-343 G230A/H232R/R293Q): as the sequence (Q86WV6 140-343 H232R) above, with G91A, R154Q counted along it
Nature of the test: Differential Scanning Fluorimetry with AQ STING. The format is binding. The following applies: thermal shift vs apoprotein, 150 µM CDN, truncated human AQ STING 0.1 mg/ml.
Text: as §1, §2, §3

Test [2] concerns the target T1, WT STING. The test is described as follows: Digitonin assay using 293T wtSTING-FL reporter cells. The test is classed as cell-based. The following applies: 293T wtSTING-FL cells; 30 minutes in Digitonin buffer, then 5 hours; ISRE firefly luciferase reporter. An excerpt:
(§4) Two complementary oligonucleotides of the sequence […] […] […] […] […] The oligonucleotides were mixed in equal molar amounts, hybridized, and cleaved by restriction endonucleases HindIII (cat. #. R0104S, NEB, Ipswich, USA) and BglII (cat. # R0144S, NEB, Ipswich, USA). Ultimately, they were ligated into plasmid pGL4.27 (cat. # E6651, Promega, Madison, USA) linearized with the same enzymes. As result the sequence with four ISRE sites was placed upstream of the minimum promoter of firefly luciferase reporter gene.
(§5) After 5 minutes incubation at room temperature (RT), 250 µL of the mixture was added dropwise to the cells in one well. Cells were incubated 36 hours at 37° C. with 5% CO2, and then detached with 0.05% Trypsin and 0.22 g/L EDTA (both cat. # L0941, Biowest, Riverside, USA).
(§6) Transfected cells were seeded onto poly-D-lysine coated six well plates at density 50,000 cells per 1 cm^2 in DMEM medium with high glucose containing 10% heat inactivated FBS, 30 µg/mL blasticidin (cat. # ant-bl-05, InvivoGen, San Diego, USA), 0.06 mg/ml Penicillin G and 0.1 mg/ml Streptomycin Sulfate (both cat. #. L0018, Biowest, Riverside, USA). The medium was replenished every 3 - 4 days until visible colonies of cells resistant to blasticidin were formed.
(§7) Blasticidin resistant cells stably expressing WT STING were further transfected with […] plasmid following the same procedure as described above. […] Homogeneous culture of stably double transfected cells was prepared by limiting dilution of cells in 96 well plates and wells with cells were selected that originated from a single cell.
The medium was removed next day and three fold serial dilutions of compounds in Digitonin buffer containing 50 mmol.l^-1 HEPES (cat. # H3375, Sigma Aldrich, Czech Republic) pH 7.0, 100 mmol.1^-1 KCl, 3 mmol.l^-1 MgCl2, 0.1 mmol.l^-1 DTT (cat. # D0632, Sigma Aldrich, Czech Republic), 85 mmol.1^-1 Sucrose (cat. # S7903, Sigma Aldrich, Czech Republic), 0.2% BSA (cat. # A2153, Sigma Aldrich, Czech Republic), 1 mmol.l^-1 ATP (cat. # A1852, Sigma Aldrich, Czech Republic), 0.1 mmol.1^-1 GTP (cat. # G8877, Sigma Aldrich, Czech Republic), and 10 µg/mL Digitonin A (cat. # D141, Sigma Aldrich, Czech Republic) were added to the cells. The buffer was removed after 30 minutes incubation at 37° C. with 5% CO2, the cells were washed once with 100 µl of cultivation medium, and 100 µl of medium was added to each well. The plates with cells were incubated for 5 hours at 37° C. with 5% CO2, 50µl of the medium was removed and 30 µl of ONE-Glo^Tm Luciferase Assay System reagent (cat. # E6120, Promega, Madison, USA) was added to each well. Luminescence was read on Synergy H1 (Biotek, Winooski, USA).
Target sequence in this assay (Q86WV6 whole entry H232R, the tested form may be a part): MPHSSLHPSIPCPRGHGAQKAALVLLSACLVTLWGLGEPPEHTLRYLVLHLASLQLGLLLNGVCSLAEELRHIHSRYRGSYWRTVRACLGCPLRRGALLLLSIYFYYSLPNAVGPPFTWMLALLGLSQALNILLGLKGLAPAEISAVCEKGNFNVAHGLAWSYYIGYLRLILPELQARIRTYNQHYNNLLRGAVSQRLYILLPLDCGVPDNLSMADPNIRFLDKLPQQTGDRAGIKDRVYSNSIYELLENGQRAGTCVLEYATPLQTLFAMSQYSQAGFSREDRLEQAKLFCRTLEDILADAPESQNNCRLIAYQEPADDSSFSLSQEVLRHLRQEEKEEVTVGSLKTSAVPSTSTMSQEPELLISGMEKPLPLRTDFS
In general terms: In a reporter assay the amount or activity of a reporter protein is the signal.

The target in test [3] is T1, WT STING. The test is described as follows: 293T WT STING standard reporter assay. The format is cell-based. The following applies: 293T wtSTING-FL cells; 7 hours with compound, no digitonin; ISRE firefly luciferase reporter.
Text: as §4, §5, §6, §7
Target sequence in this assay (Q86WV6 whole entry H232R, the tested form may be a part): as above
The medium was removed next day and three-fold serial dilutions of compounds in 100 µl medium were added to the cells. The plates with cells were incubated for 7 hours at 37° C. with 5% CO2. After 50 µl of the medium was removed, 30 µl of ONE-Glo^Tm Luciferase Assay System reagent (cat. # E6120, Promega, Madison, USA) was added to each well and luminescence was read on Synergy H1 (Biotek, Winooski, USA).

Test [4] relates to peripheral blood mononuclear cell (PBMC). Nature of the test: Peripheral blood mononuclear cell assay. The format is cell-based. Particulars: PBMC, 1h with compound, washed, 15 hour incubation. As to the method: Selected compounds were tested in an in vitro peripheral blood mononuclear cell (PBMC) assay. Freshly isolated PBMCs were seeded into U-shaped shaped 96-well plates at desity 500,000 cells per well in 50 µl of RPMI 1640 medium supplemented with 10% heat inactivated FBS. Serially dilluted tested compounds were added to wells in 50 µl of cultivation medium and cell were incubated with compounds for 1h at 37° C. with 5% CO2. Plates with cells were then spun 500 g for 5 minutes and medium was removed. Cells were washed twice with the cell culture medium by the use of centrifugation and gently resuspended in 100 µl medium without compounds. After 15 hour incubation at 37° C. with 5% CO2, the cell culture medium was collected and the levels of interferon-alpha (INF-α), interferon-gamma (INF-γ) and tumor necrosis factor-alpha (TNF-α) were determined with ProcartaPlex Assays (ThermoFisher, Waltham, USA) and MAGPIX System (Merck KGaA, Darmstadt, Germany).

The structures appear in SMILES notation. pEC50: −log10 of the molar value. Read-outs that look alike come from different tables or passages of the source.

Broadly, the pEC50 is the negative decadic logarithm of the EC50, by convention in mol/L. On to `Nc1nc2c(ncn2[C@@H]2O[C@@H]3COP(=O)(O)O[C@@H]4[C@H](O)[C@@H](COP(=O)(O)O[C@@H]2[C@@H]3O)O[C@H]4n2cnc3c(N)ncnc32)c(=O)[nH]1` [2′2′-cGAMP, reference compound], for which the “DSF ΔTm WT STING” value on WT STING [1] stood at 11.5 °C. Moreover, the “DSF ΔTm AQ STING” value on AQ STING (G230A-R293Q) is 19.4 °C. Moreover, the pEC50 was 7.52 at WT STING [2] and 4.99 at WT STING [3].
The term ΔTm denotes the change in melting temperature against a reference sample. With `Nc1ncnc2c1ncn2[C@@H]1O[C@@H]2/C=C/P(=O)(O)O[C@H]3[C@@H](F)[C@H](n4cnc5c(N)ncnc54)O[C@@H]3COP(=O)(O)O[C@H]2[C@H]1F` [Compound 53], the ΔTm at 150 µM at WT STING [1] (read-out: DSF ΔTm WT STING) was found to be 6.9 °C; at AQ STING (G230A-R293Q) (read-out: DSF ΔTm AQ STING) it was 11.6 °C. Besides, the pEC50 at WT STING [2] was 7.52; in test [4] (IFN-α level in medium, read-out: PBMC EC50 IFN-α) it was 3.92; in test [4] (IFN-γ level in medium, read-out: PBMC EC50 IFN-γ), 4.44; in test [4] (TNF-α level in medium, read-out: PBMC EC50 TNF-α), 4.27; on WT STING [3], 5.00.

These data come from patent US20230303613A1, “3′3′ CYCLIC DINUCLEOTIDES WITH AN ALKENYLENE” (Institute of Organic Chemistry and Biochemistry AS CR, v.v.i, priority 2020, published 2023).
